Patent publication US9732050B2, “Modulators of sperm hypermotility and uses thereof” (HYDRA BIOSCIENCES, INC., priority 2005, dated 2017)

Molecular target: T1, Mouse CatSper1 currents (Mus musculus, UniProt Q91ZR5)
T1 construct: Spermatozoa from corpus epididymis were used because the CD of such cells was less fragile; from tissue; host or cells: mouse spermatozoa from corpus epididymis
Experiment: Inhibition of mouse CatSper1 currents in electrophysiological recordings
Format: cell-based
Procedure: Compound (II) was tested for its effects on sperm hyperactivation using a single-sperm motility assay as described in Kirichok Y, Navarro B, Clapham D E. “Whole-cell patch-clamp measurements of spermatozoa reveal an alkaline-activated Ca2+ channel”. Nature. 2006; 439(7077):737-40. Mouse sperm was prepared as described in Kirichok.
The patch pipette was applied to the sperm cell cytoplasmic droplet (CD). Spermatozoa from corpus epididymis were used because the CD of such cells was less fragile. The most mature spermatozoa, those with the CD located next to the principal piece, were chosen for experiments. Pipette resistance with Cs-Methanesulfonate-based solutions was 6-13 MΩ. Access resistance in the whole-cell configuration was 25-120 MS). The pipette solution (in mM) was as follows: 140 Cs-Methanesulfonate, 5 NaCl, 10 HEPES, 10 EGTA, pH 7.2 (pH adjusted with CsOH).
Seals between the patch pipette and the cytoplasmic droplet were formed in HS bath solution (Kirichok Y, Navarro B, Clapham D E. Whole-cell patch-clamp measurements of spermatozoa reveal an alkaline-activated Ca2+ channel. Nature. 2006 Feb. 9; 439(7077):737-40). After break-in, the bath solution was changed to recording solution: 150 NaGluconate, 10 HEPES, 2Na3HEDTA and 2 EGTA, pH 7.4 (pH adjusted with NaOH). CaCl2 was added to the solution in accordance with the WinMAXC v2.05 program (C. Patton, Stanford University) to yield ˜[…] free [Ca2+].
A 20 micromolar solution of compound (II), i.e. 3,4-bis(2-thienylcarbonyl)-1,2,5-oxadiazole-2-ium-2-olate, was prepared from a 100 mM DMSO stock in the recording solution described above. Osmolarity of the solutions was approximately 303 mmol kg-1.
The membrane potential was held at 0 mV. Every 5 seconds CatSper currents were monitored by application of a voltage ramp from −100 mV to +100 mV over the course of 400 milliseconds. Following break-in, cells were monitored until a steady state level of CatSper current (plotted at +80 mV) was observed. […] Steady state block was monitored for 5-6 sweeps. […] Series resistance was monitored throughout the recordings.

SMILES: O=C(c1cccs1)c1no[n+]([O-])c1C(=O)c1cccs1 [Compound (II), 3,4-bis(2-thienylcarbonyl)-1,2,5-oxadiazole-2-ium-2-olate]
- block of CatSper current (20 micromolar, current plotted at +80 mV, mouse spermatozoa from corpus epididymis): steady state block was achieved
- sweeps until steady state block (20 micromolar, voltage ramp every 5 seconds): 2-3 sweeps
- CatSper current following removal of the compound (washout after 20 micromolar): returned rapidly to unblocked levels
